Biological target: T1, longipain (Haemaphysalis longicornis, UniProt A1IHG0)
T1 construct: gene HlCath; partial coding region (pPICZC) expressed in Pichia pastoris GS115, HiTrap chelating column purified; precursor 341 residues with 17-residue signal peptide
Assay: inhibition of fluorogenic substrate hydrolysis
Type: biochemical
Details: read-out: Inhibition (%) relative to control / Z-F-R-MCA
Source text: inhibition of fluorogenic substrate hydrolysis on longipain

T1 sequence (A1IHG0 22-341 limits assumed): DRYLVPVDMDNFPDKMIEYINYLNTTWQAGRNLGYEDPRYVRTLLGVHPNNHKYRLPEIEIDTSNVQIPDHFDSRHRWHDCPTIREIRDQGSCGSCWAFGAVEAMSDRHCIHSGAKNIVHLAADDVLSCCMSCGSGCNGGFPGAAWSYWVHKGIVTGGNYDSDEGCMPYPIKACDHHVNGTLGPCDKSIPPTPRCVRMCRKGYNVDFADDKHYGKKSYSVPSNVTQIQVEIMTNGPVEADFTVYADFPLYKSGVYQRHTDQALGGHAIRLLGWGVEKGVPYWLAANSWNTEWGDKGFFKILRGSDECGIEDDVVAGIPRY

inhibition at 10 µM: 84 ± 0.2%
Compound: CC(C)C[C@H](NC(=O)[C@@H]1O[C@H]1C(=O)O)C(=O)NCCCCNC(=N)N [E-64]

— paper PMC2358973, “A Cysteine Protease Is Critical for Babesia spp. Transmission in Haemaphysalis Ticks” (PLoS Pathogens, 2008)
